Experimental data published in PMC3365829 (ACS medicinal chemistry letters, 2012).

Assay: In vivo pharmacokinetics in mice
Details: mouse, iv, 3 mg/kg

clearance: 19.5 mL/min/kg
Compound: CCCCNc1ncc2c(-c3ccc(F)cc3)nn(C[C@H]3CC[C@H](N)CC3)c2n1 [Compound 43]
